Source: patent publication US20250179045A1, “LPAR1 ANTAGONISTS AND USES THEREOF” (Contineum Therapeutics, Inc., priority 2021, published 2025)

What follows are compounds tested against human LPA1 (Homo sapiens, UniProt Q92633) (assay: In vitro functional assay of lysophosphatidic acid receptor 1 activity (calcium flux)). Settings: B103 cells stably expressing human LPA1; Fluo-4 NW calcium flux after lysophosphatidic acid (18:1) at EC80; compounds 100 pM to 10 μM; read-out: LPA1 IC50.
Type: cell-based
Description: In vitro functional assay of lysophosphatidic acid receptor 1 activity
Primary compound plates were prepared in 100% DMSO (Sigma-Aldrich), secondary compound plates were prepared at 10× concentration in DiVEM (Invitrogen), and tertiary compound plates were prepared at 3x concentration in assay buffer containing HBSS (no Ca^+2/Mg^+2, Invitrogen) and 0.1% BSA (Sigma-Aldrich). Fluo-4 NW calcium assay dye (Invitrogen) was prepared as per manufacturer's recommendations in assay buffer. B103 cells stably expressing human LPA1(J. Chun lab, UCSD) were grown to confluency in DMEM media (Invitrogen) containing 10% FBS (ATCC), […] (Sigma-Aldrich) and […] Geneticin (Sigma-Aldrich), and detached with Accutase (Sigma-Aldrich) prior to assay. The freshly detached cells were resuspended in growth media and plated in black, clear-bottom 96-well plates (Costar) containing compound (i.e., secondary compound plate) at a density of 5×10^4 cells/well. Once plated, cells were left at room temperature for 30 minutes and then transferred to a 37° C., […] incubator for 24 hours. After 24 hours, the growth media was then removed and freshly prepared Fluo-4 NW calcium assay dye was added to cells. Compounds (i.e. tertiary compound plates) were then added back to the dye/cells, returned to the incubator for 30 minutes, and then kept at room temperature for an additional 30 minutes. Finally, lysophosphatidic acid (18:1) at the EC80 concentration was added and calcium flux measured using FlexStation 3 (Molecular Devices). Sigmoidal dose-response curves were generated by measuring […] over 45 sec and calculating the area under the curve. Dose response curves and IC50 values were generated using Prism (GraphPad). Compounds were tested at a final concentration range of 100 pM to 10 μM in 0.10% DMSO.

Chain of human LPA1 (Q92633 whole entry): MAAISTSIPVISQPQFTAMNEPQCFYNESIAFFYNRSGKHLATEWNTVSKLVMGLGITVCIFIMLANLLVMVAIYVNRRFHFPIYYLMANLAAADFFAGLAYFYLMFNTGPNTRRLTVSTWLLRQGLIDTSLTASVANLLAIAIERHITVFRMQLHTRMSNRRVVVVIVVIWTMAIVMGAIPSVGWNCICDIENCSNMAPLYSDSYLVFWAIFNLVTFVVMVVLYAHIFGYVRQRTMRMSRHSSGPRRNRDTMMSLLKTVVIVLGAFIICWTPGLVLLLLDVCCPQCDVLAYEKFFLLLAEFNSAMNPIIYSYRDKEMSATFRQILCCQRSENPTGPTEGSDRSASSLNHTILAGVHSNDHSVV

| Structure (SMILES) | IC50 [nM] |
| --- | --- |
| COc1ccc(NC(=O)C2(c3ccccc3C(C)C)CCC3(CC2)OCCO3)c(OC(F)F)n1 [Example 79, N-(2-(difluoromethoxy)-6-methoxypyridin-3-yl)-8-(2-isopropylphenyl)-1,4-dioxaspiro[4.5]decane-8-carboxamide] | 100 to 1000 |
| Cc1ccc(NC(=O)C2(c3ccccc3C(C)C)CCC2)c(OC(F)F)n1 [Example 73, N-(2-(difluoromethoxy)-6-methylpyridin-3-yl)-1-(2-isopropylphenyl)cyclobutane-1-carboxamide] | > 1000 |
| Cc1ccc(NC(=O)C2(c3ccccc3C(C)C)CC(F)(F)C2)c(OC(F)F)n1 [Example 61, N-(2-(difluoromethoxy)-6-methylpyridin-3-yl)-3,3-difluoro-1-(2-isopropylphenyl)cyclobutane-1-carboxamide] | > 1000 |
| COc1ccc(NC(=O)C2(c3ccccc3C(C)C)CCC(C)(O)CC2)c(OC(F)F)n1 (single isomer, unassigned) [Example 83-isomer A, N-(2-(difluoromethoxy)-6-methoxypyridin-3-yl)-4-hydroxy-1-(2-isopropylphenyl)-4-methylcyclohexane-1-carboxamide] | > 1000 |
| COc1ccc(NC(=O)C2(c3ccccc3C(C)C)COC2)c(OC2CC2)n1 [Example 29, N-(2-cyclopropoxy-6-methoxypyridin-3-yl)-3-(2-isopropylphenyl)oxetane-3-carboxamide] | 100 to 1000 |
| Cc1ccc(NC(=O)C2(c3ccccc3C(C)C)CC(NC3CC3)C2)c(OC(F)F)n1 (single isomer, unassigned) [Example 40-isomer A, 3-(cyclopropylamino)-N-(2-(difluoromethoxy)-6-methylpyridin-3-yl)-1-(2-isopropylphenyl)cyclobutane-1-carboxamide] | 100 to 1000 |
| Cc1ccc(NC(=O)C2(c3ccccc3C(C)C)CC(O)C2)c(OC(F)F)n1 (stereo not shown) [Example 58, N-(2-(difluoromethoxy)-6-methylpyridin-3-yl)-3-hydroxy-1-(2-isopropylphenyl)cyclobutane-1-carboxamide] | 100 to 1000 |
| COc1nc(Cl)ccc1NC(=O)C1(c2ccccc2C(C)C)COC1 [Example 28, N-(6-chloro-2-methoxypyridin-3-yl)-3-(2-isopropylphenyl)oxetane-3-carboxamide] | > 1000 |
| CC(C)c1ccccc1C1(C(=O)Nc2cccnc2OC(F)F)CC(=O)N(C)C1 (stereo not shown) [Example 2, N-(2-(difluoromethoxy)pyridin-3-yl)-3-(2-isopropylphenyl)-1-methyl-5-oxopyrrolidine-3-carboxamide] | 100 to 1000 |
| CC(C)c1ccccc1C1(C(=O)Nc2ccc(Cl)cc2OC(F)F)CCOCC1 [Example 14, N-(4-chloro-2-(difluoromethoxy)phenyl)-4-(2-isopropylphenyl)tetrahydro-2H-pyran-4-carboxamide] | 100 to 1000 |
| COc1ccc(NC(=O)C2(c3ccccc3C(C)C)CCC(S(N)(=O)=O)CC2)c(OC(F)F)n1 (stereo not shown) [Example 97, N-(2-(difluoromethoxy)-6-methoxypyridin-3-yl)-1-(2-isopropylphenyl)-4-sulfamoylcyclohexane-1-carboxamide] | 100 to 1000 |
| CC(C)c1ccccc1C1(C(=O)Nc2ncc(Cl)cc2OC(F)F)CC(=O)N(C)C1 (single isomer, unassigned) [Example 7, N-(5-chloro-3-(difluoromethoxy)pyridin-2-yl)-3-(2-isopropylphenyl)-1-methyl-5-oxopyrrolidine-3-carboxamide] | 100 to 1000 |
| CC(C)c1ccccc1C1(C(=O)Nc2ccc(Cl)cn2)CC(O)(C(F)(F)C(=O)O)C1 (single isomer, unassigned) [Example 93-isomer B, 2-(3-((5-chloropyridin-2-y1)carbamoyl)-1-hydroxy-3-(2-isopropylphenyl)cyclobutyl)-2,2-difluoroacetic acid] | 100 to 1000 |

More lines, now with the values ahead:

| IC50 [nM] | Structure (SMILES) |
| --- | --- |
| 100 to 1000 | Cc1ccc(NC(=O)C2(c3ccccc3C(C)C)CC(CC(=O)N(C)C)C2)c(OC(F)F)n1 (stereo not shown) [Example 67, N-(2-(difluoromethoxy)-6-methylpyridin-3-yl)-3-(2-(dimethylamino)-2-oxoethyl)-1-(2-isopropylphenyl)cyclobutane-1-carboxamide] |
| 10 to 100 | COc1cc(Cl)ncc1NC(=O)C1(c2ccccc2C(C)C)COC1 [Example 19, N-(6-chloro-4-methoxypyridin-3-yl)-3-(2-isopropylphenyl)oxetane-3-carboxamide] |
| 100 to 1000 | COc1ccc(NC(=O)C2(c3ccccc3C(C)C)CNC(=O)C2)c(OC)n1 (stereo not shown) [Example 103, N-(2,6-dimethoxypyridin-3-yl)-3-(2-isopropylphenyl)-5-oxopyrrolidine-3-carboxamide] |
| 10 to 100 | CC(C)c1ccccc1C1(C(=O)Nc2ccc(Cl)nc2OC(F)F)CNC(=O)C1 (stereo not shown) [Example 108, N-(6-chloro-2-(difluoromethoxy)pyridin-3-yl)-3-(2-isopropylphenyl)-5-oxopyrrolidine-3-carboxamide] |
| 10 to 100 | COc1ccc(NC(=O)C2(c3ccccc3C(C)C)CCC(C)(O)CC2)c(OC(F)F)n1 (single isomer, unassigned) [Example 83-isomer B, N-(2-(difluoromethoxy)-6-methoxypyridin-3-yl)-4-hydroxy-1-(2-isopropylphenyl)-4-methylcyclohexane-1-carboxamide] |
| < 10 | CC(C)c1ccccc1C1(C(=O)Nc2ccc(Br)cc2OC(F)F)COC1 [Example 16, N-(4-bromo-2-(difluoromethoxy)phenyl)-3-(2-isopropylphenyl)oxetane-3-carboxamide] |
| 10 to 100 | COc1ccc(NC(=O)C2(c3ccccc3C(C)C)CCC(O)CC2)c(OC(F)F)n1 (mixture of isomers) [Example 81, N-(2-(difluoromethoxy)-6-methoxypyridin-3-yl)-4-hydroxy-1-(2-isopropylphenyl)cyclohexane-1-carboxamide] |
| 10 to 100 | CC(C)c1ccccc1C1(C(=O)Nc2ccc(Br)cc2OC(F)F)CC(=O)N(C)C1 (stereo not shown) [Example 87, N-(4-bromo-2-(difluoromethoxy)phenyl)-3-(2-isopropylphenyl)-1-methyl-5-oxopyrrolidine-3-carboxamide] |
| 10 to 100 | COc1cc(C)ccc1NC(=O)C1(c2ccccc2C(C)C)CNC(=O)C1 (stereo not shown) [Example 101, 3-(2-isopropylphenyl)-N-(2-methoxy-4-methylphenyl)-5-oxopyrrolidine-3-carboxamide] |
| 10 to 100 | Cc1ccc(NC(=O)C2(c3ccccc3C(C)C)CC(=O)N(C)C2)c(OC(F)F)c1 (stereo not shown) [Example 110, N-(2-(difluoromethoxy)-4-methylphenyl)-3-(2-isopropylphenyl)-1-methyl-5-oxopyrrolidine-3-carboxamide] |
| 10 to 100 | COc1ccc(NC(=O)C2(c3ccccc3C(C)C)COC2)c(OC(C)C)n1 [Example 30, N-(2-isopropoxy-6-methoxypyridin-3-yl)-3-(2-isopropylphenyl)oxetane-3-carboxamide] |
| 10 to 100 | COc1ccc(NC(=O)[C@]2(c3ccccc3C(C)C)C[C@H](CC(N)=O)C2)c(OC(F)F)n1 [Example 117, cis-3-(2-amino-2-oxoethyl)-N-(2-(difluoromethoxy)-6-methoxypyridin-3-yl)-1-(2-isopropylphenyl)cyclobutane-1-carboxamide] |
| 10 to 100 | Cc1ccc(NC(=O)C2(c3ccccc3C(C)C)CC(=O)N(C)C2)c(OC(F)F)n1 (stereo not shown) [Example 3, N-(2-(difluoromethoxy)-6-methylpyridin-3-yl)-3-(2-isopropylphenyl)-1-methyl-5-oxopyrrolidine-3-carboxamide] |
| 10 to 100 | CC(=O)N(C)C1CC(C(=O)Nc2ccc(C)nc2OC(F)F)(c2ccccc2C(C)C)C1 (mixture of isomers) [Example 43, N-(2-(difluoromethoxy)-6-methylpyridin-3-yl)-1-(2-isopropylphenyl)-3-(N-methylacetamido)cyclobutane-1-carboxamide] |
| 10 to 100 | Cc1ccc(NC(=O)C2(c3ccccc3C(C)C)COC2)c(OC(F)F)n1 [Example 17, N-(2-(difluoromethoxy)-6-methylpyridin-3-yl)-3-(2-isopropylphenyl)oxetane-3-carboxamide] |
| 10 to 100 | COc1ccc(NC(=O)C2(c3ccccc3C(C)C)CCC(=O)CC2)c(OC(F)F)n1 [Example 80, N-(2-(difluoromethoxy)-6-methoxypyridin-3-yl)-1-(2-isopropylphenyl)-4-oxocyclohexane-1-carboxamide] |
| 10 to 100 | COc1cc(C)ccc1NC(=O)C1(c2ccccc2C(C)C)CNC(=O)C1 (single isomer, unassigned) [Example 102-isomer A, 3-(2-isopropylphenyl)-N-(2-methoxy-4-methylphenyl)-5-oxopyrrolidine-3-carboxamide] |
| 10 to 100 | Cc1ccc(NC(=O)C2(c3ccccc3C(C)C)CC(Cc3nnn[nH]3)C2)c(OC(F)F)n1 (mixture of isomers) [Example 112, 3-((1H-tetrazol-5-yl)methyl)-N-(2-(difluoromethoxy)-6-methylpyridin-3-yl)-1-(2-isopropylphenyl)cyclobutane-1-carboxamide] |
